According to patent publication US20090005444A1, “USE OF PROPOFOL PRODRUGS FOR TREATING ALCOHOL WITHDRAWAL, CENTRAL PAIN, ANXIETY OR PRURITUS” (XenoPort, Inc., priority 2007, published 2009):

Columns and labels:
[1] = system: pruritus; settings: subhypnotic doses; cholestasis and spinal morphine administration; cited from earlier work
[2] = oral dosing in rats; cited from earlier work
[3] = system: central pain; settings: subanesthetic dose 0.2 mg/kg IV; cited from earlier work
[4] = system: delirium tremens; settings: sedative and subsedative doses of propofol; cited from earlier work
[5] = system: anxiety; settings: animal studies; cited from earlier work
[6] = system: male beagle dogs; assay: Acute toxicity study, single oral dose in dogs; type: in vivo
Procedure: Acute toxicity studies were also performed by orally administering a single dose of compound (2) formulated in water to groups of male beagle dogs at doses from about 25 mg-eq/kg to about 150 mg-eq/kg propofol.

[7] = system: rats; assay: Acute toxicity study, single oral dose in rats; type: in vivo
Procedure: Acute toxicity studies in rats were undertaken to assess the tolerance of a single oral dose of compound (2) formulated in water. […] Complete recovery from hypoactivity, sedation, and anesthesia occurred in all rats within about 8 hours after dosing. Doses above about 1552 mg-eq/kg (about 800 mg-eq/kg of propofol) were not tested.

[8] = system: male rats; assay: Multiple dose study in rats, oral once a day for five days; type: in vivo; settings: oral gavage once a day for five days, 49 to 97 mg-eq/kg propofol
Procedure: Multiple dose studies in rats were performed by orally administering compound (2) formulated in water to groups of male rats at doses of 49 mg-eq/kg to 97 mg-eq/kg propofol for a period of five days, by oral gavages administered once a day.

[9] = rats, single oral dose about 49 to about 388 mg-eq/kg propofol
[10] = rats, single oral dose about 582 to about 970 mg-eq/kg propofol
[11] = rats, single oral dose about 1164 to about 1552 mg-eq/kg propofol

Row | SMILES | effect on pruritus [1] | administered drug undergoing first pass metabolism [2] | effect on SCIP and CPSP central pain [3] | effect on symptoms of delirium tremens [4] | anxiolytic effect [5] | tolerance of a single oral dose ([6]; formulated in water, about 25 to about 150 mg-eq/kg propofol) | sedation or anesthesia ([6]; single oral dose about 25 to about 150 mg-eq/kg propofol) | time to complete recovery from hypoactivity, sedation, and anesthesia ([7]; all rats, after single oral dose) [h] | tolerance of a single oral dose ([7]; rats, formulated in water, about 49 to about 1552 mg-eq/kg propofol) | onset of transient hypoactivity after dose [7, 9] [min] | transient hypoactivity maintained, time post dose [7, 9] | onset of sedation after dosing [7, 10] [h] | sedation continued, time post dose [7, 10] | anesthesia continued, time post dose [7, 11] | onset of anesthesia after dosing [7, 11] [h] | adverse effects [8] | sedation or anesthesia [8] | tolerance of multiple oral doses [8]
1 | CC(C)c1cccc(C(C)C)c1O [propofol, 2,6-diisopropylphenol] | effective in controlling pruritus associated with cholestasis and spinal morphine administration | approximately 90% | effective in reducing both SCIP and CPSP central pain | effective in reducing the symptoms of delirium tremens | exerts an anxiolytic effect independent of any sedative effect | – | – | – | – | – | – | – | – | – | – | – | – | –
2 | CC(C)c1cccc(C(C)C)c1OC(=O)OC[C@H](N)C(=O)O [compound (2), (S)-2-amino-3-(2,6-diisopropyl-phenoxycarbonyloxy)-propanoic acid] | – | – | – | – | – | well tolerated | No sedation or anesthesia was observed | ≤ 8 | well tolerated | ≤ 30 | up to 4 hours | ≤ 1.5 | up to 4 hours | up to 2 hours | ≤ 1 | No adverse effects were observed | No sedation or anesthesia was observed | well tolerated
